Source: PubChem BioAssay (NCI)
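GI50: concentration for 50% inhibition of growth. The concentration for full growth arrest is given as TGI.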

Columns and labels:
Test in all cases: NCI-60 cell line screen, 384-well format
SF-268 CNS = test system: SF-268 CNS
MDA-MB-435 melanoma = test system: MDA-MB-435 melanoma
HCC-2998 colon = test system: HCC-2998 colon
RXF 393 renal = test system: RXF 393 renal
MOLT-4 leukemia = test system: MOLT-4 leukemia
MDA-MB-468 breast = test system: MDA-MB-468 breast
OVCAR-5 ovarian = test system: OVCAR-5 ovarian
SK-OV-3 ovarian = test system: SK-OV-3 ovarian
CCRF-CEM leukemia = test system: CCRF-CEM leukemia
NCI-H226 lung = test system: NCI-H226 lung
IGROV1 ovarian = test system: IGROV1 ovarian
SK-MEL-5 melanoma = test system: SK-MEL-5 melanoma
SF-539 CNS = test system: SF-539 CNS
NCI-H522 lung = test system: NCI-H522 lung
MALME-3M melanoma = test system: MALME-3M melanoma
A498 renal = test system: A498 renal
UO-31 renal = test system: UO-31 renal
SNB-19 CNS = test system: SNB-19 CNS
UACC-257 melanoma = test system: UACC-257 melanoma
OVCAR-3 ovarian = test system: OVCAR-3 ovarian
K-562 leukemia = test system: K-562 leukemia
SK-MEL-2 melanoma = test system: SK-MEL-2 melanoma
HCT-116 colon = test system: HCT-116 colon
SR leukemia = test system: SR leukemia
DU-145 prostate = test system: DU-145 prostate
T-47D breast = test system: T-47D breast
PC-3 prostate = test system: PC-3 prostate
MDA-MB-231 breast = test system: MDA-MB-231 breast
OVCAR-4 ovarian = test system: OVCAR-4 ovarian
COLO 205 colon = test system: COLO 205 colon
TK-10 renal = test system: TK-10 renal
LOX IMVI melanoma = test system: LOX IMVI melanoma
HOP-92 NSCLC = test system: HOP-92 NSCLC
CAKI-1 renal = test system: CAKI-1 renal
HT29 colon = test system: HT29 colon
KM12 colon = test system: KM12 colon
A549 NSCLC = test system: A549 NSCLC
SW-620 colon = test system: SW-620 colon
M14 melanoma = test system: M14 melanoma
ACHN renal = test system: ACHN renal
HL-60(TB) leukemia = test system: HL-60(TB) leukemia
NCI-H23 lung = test system: NCI-H23 lung
SK-MEL-28 melanoma = test system: SK-MEL-28 melanoma
U251 glioblastoma = test system: U251 glioblastoma
NCI-H322M lung = test system: NCI-H322M lung
SN12C renal = test system: SN12C renal
HCT-15 colon = test system: HCT-15 colon
786-0 renal = test system: 786-0 renal
NCI-H460 NSCLC = test system: NCI-H460 NSCLC
OVCAR-8 ovarian = test system: OVCAR-8 ovarian
UACC-62 melanoma = test system: UACC-62 melanoma
NCI/ADR-RES ovarian = test system: NCI/ADR-RES ovarian
RPMI-8226 leukemia = test system: RPMI-8226 leukemia
MCF7 breast = test system: MCF7 breast
SF-295 CNS = test system: SF-295 CNS

CCc1cc(Nc2nccc(-c3c(-c4ccc(OC)c(C(=O)Nc5c(F)cccc5F)c4)nc4ccccn34)n2)c(OC)cc1N1CCC(N2CCN(S(C)(=O)=O)CC2)CC1
GI50 (SF-268 CNS): > 100 µM | TGI (SF-268 CNS): > 100 µM | GI50 (MDA-MB-435 melanoma): > 100 µM | TGI (MDA-MB-435 melanoma): > 100 µM | GI50 (HCC-2998 colon): > 100 µM | TGI (HCC-2998 colon): > 100 µM | GI50 (RXF 393 renal): 750 nM | TGI (RXF 393 renal): > 100 µM | GI50 (MOLT-4 leukemia): 645 nM | TGI (MOLT-4 leukemia): > 100 µM | GI50 (MDA-MB-468 breast): 935 nM | TGI (MDA-MB-468 breast): > 100 µM | GI50 (OVCAR-5 ovarian): > 100 µM | TGI (OVCAR-5 ovarian): > 100 µM | GI50 (SK-OV-3 ovarian): > 100 µM | TGI (SK-OV-3 ovarian): > 100 µM | GI50 (CCRF-CEM leukemia): > 100 µM | TGI (CCRF-CEM leukemia): > 100 µM | GI50 (NCI-H226 lung): > 100 µM | TGI (NCI-H226 lung): > 100 µM | GI50 (IGROV1 ovarian): > 100 µM | TGI (IGROV1 ovarian): > 100 µM | GI50 (SK-MEL-5 melanoma): > 100 µM | TGI (SK-MEL-5 melanoma): > 100 µM | GI50 (SF-539 CNS): > 100 µM | TGI (SF-539 CNS): > 100 µM | GI50 (NCI-H522 lung): > 100 µM | TGI (NCI-H522 lung): > 100 µM | GI50 (MALME-3M melanoma): > 100 µM | TGI (MALME-3M melanoma): > 100 µM | GI50 (A498 renal): > 100 µM | TGI (A498 renal): > 100 µM | GI50 (UO-31 renal): > 100 µM | TGI (UO-31 renal): > 100 µM | GI50 (SNB-19 CNS): > 100 µM | TGI (SNB-19 CNS): > 100 µM | GI50 (UACC-257 melanoma): > 100 µM | TGI (UACC-257 melanoma): > 100 µM | GI50 (OVCAR-3 ovarian): > 100 µM | TGI (OVCAR-3 ovarian): > 100 µM | GI50 (K-562 leukemia): > 100 µM | TGI (K-562 leukemia): > 100 µM | GI50 (SK-MEL-2 melanoma): > 100 µM | TGI (SK-MEL-2 melanoma): > 100 µM | GI50 (HCT-116 colon): > 100 µM | TGI (HCT-116 colon): > 100 µM | GI50 (SR leukemia): 932 nM | TGI (SR leukemia): > 100 µM | GI50 (DU-145 prostate): > 100 µM | TGI (DU-145 prostate): > 100 µM | GI50 (T-47D breast): 587 nM | TGI (T-47D breast): > 100 µM | GI50 (PC-3 prostate): > 100 µM | TGI (PC-3 prostate): > 100 µM | GI50 (MDA-MB-231 breast): 18.6 µM | TGI (MDA-MB-231 breast): > 100 µM | GI50 (OVCAR-4 ovarian): > 100 µM | TGI (OVCAR-4 ovarian): > 100 µM | GI50 (COLO 205 colon): > 100 µM | TGI (COLO 205 colon): > 100 µM | GI50 (TK-10 renal): > 100 µM | TGI (TK-10 renal): > 100 µM | GI50 (LOX IMVI melanoma): > 100 µM | TGI (LOX IMVI melanoma): > 100 µM | GI50 (HOP-92 NSCLC): > 100 µM | TGI (HOP-92 NSCLC): > 100 µM | GI50 (CAKI-1 renal): > 100 µM | TGI (CAKI-1 renal): > 100 µM | GI50 (HT29 colon): > 100 µM | TGI (HT29 colon): > 100 µM | GI50 (KM12 colon): > 100 µM | TGI (KM12 colon): > 100 µM | GI50 (A549 NSCLC): > 100 µM | TGI (A549 NSCLC): > 100 µM | GI50 (SW-620 colon): > 100 µM | TGI (SW-620 colon): > 100 µM | GI50 (M14 melanoma): > 100 µM | TGI (M14 melanoma): > 100 µM | GI50 (ACHN renal): > 100 µM | TGI (ACHN renal): > 100 µM | GI50 (HL-60(TB) leukemia): > 100 µM | TGI (HL-60(TB) leukemia): > 100 µM | GI50 (NCI-H23 lung): > 100 µM | TGI (NCI-H23 lung): > 100 µM | GI50 (SK-MEL-28 melanoma): > 100 µM | TGI (SK-MEL-28 melanoma): > 100 µM | GI50 (U251 glioblastoma): > 100 µM | TGI (U251 glioblastoma): > 100 µM | GI50 (NCI-H322M lung): > 100 µM | TGI (NCI-H322M lung): > 100 µM | GI50 (SN12C renal): > 100 µM | TGI (SN12C renal): > 100 µM | GI50 (HCT-15 colon): > 100 µM | TGI (HCT-15 colon): > 100 µM | GI50 ([…]-0 renal): > 100 µM | TGI (786-0 renal): > 100 µM | GI50 (NCI-H460 NSCLC): > 100 µM | TGI (NCI-H460 NSCLC): > 100 µM | GI50 (OVCAR-8 ovarian): 1790 nM | TGI (OVCAR-8 ovarian): > 100 µM | GI50 (UACC-62 melanoma): > 100 µM | TGI (UACC-62 melanoma): > 100 µM | GI50 (NCI/ADR-RES ovarian): > 100 µM | TGI (NCI/ADR-RES ovarian): > 100 µM | GI50 (RPMI-8226 leukemia): 908 nM | TGI (RPMI-8226 leukemia): > 100 µM | GI50 (MCF7 breast): > 100 µM | TGI (MCF7 breast): > 100 µM | GI50 (SF-295 CNS): > 100 µM | TGI (SF-295 CNS): > 100 µM
